Measured values taken from patent US20150065709A1, “Aminoquinazoline Derivative And Use Thereof In Preparing Anti-Malignant Tumor Medicament” (METABOMICS, INC, priority 2012, published 2015).

Assays:
[1] = biological target: EGFR (Homo sapiens, UniProt P00533); test: Caliper Mobility Shift Assay, inhibition of EGFR kinase activity; assay type: biochemical
[2] = test system: A549; test: Inhibition of tumor cells, WST method; assay type: cell-based; conditions: Homo sapiens, 48 hours
Procedure: (§1) (1) Compounds: in vitro studies the test compounds was dissolved in 100% DMSO and diluted until the final concentration of DMSO was 0.1%. The 0.1% (v/v) DMSO was added into culture medium as solvent control. 9 concentration gradients were tested and each gradient was repeated twice. (2) Tumor cell lines: the tumor cell lines were cultivated in RPMI10 culture medium containing 10% fetal calf serum in incubator at 37° C. in a 5% CO2 air incubator. The tested tumor cell lines were: BT474, MDA-MB-231, SK-Br-3, A431, H292, H1975, HCC827, A549, H1650 and H1734. (3) MTS method: cells were seeded into 96-well plate to give a density of about 3000 cells per well, and incubated overnight in a humidified incubator at 37° C. In the next day, the test compounds were added to the wells and further incubated for 72 hours. The cell activity was detected using MTS. IC50 was calculated (the concentration of a compound that is required for 50% inhibition of the cell growth versus the DMSO control group, using nonlinear regression analysis of software GraphPad Prism). […] In a 96-well plate, each test compound was tested at 9 dosage concentrations and each dosage was made in triplicate. Samples were added in 100 μL/well. Cell control and negative control wells contained diluents instead of compounds. Except the negative control well, 100 μL cell suspension of complete medium was added into each test well, wherein corresponding cell numbers were included to assure that the cells in cell control well just cover the bottom of the well as the required incubation time was reached. The plate was incubated in a CO2 incubator at 37° C. for 48 hours. The liquid in test wells was removed by pipetting. 100 μL CCK-8 (Cell counting Kit-8, purchased from DOJINDO Molecular Technologies) detection liquid (containing 10% CCK-8, 5% FBS corresponding medium) was added into each test well, then the plate was incubated in a CO2 incubator under at 37° C. for 3 hours. OD value was detected by ELIASA at A450 nm. Cell viability percentage (%)=(O.D. test compound-O.D. blank)/(O.D. control-O.D. blank)×100. Mean value was calculated for each 3 repeated wells, and IC50 was calculated using nonlinear regression (fitted curve) data analysis method.
(§2) Parts of test results of compound Ie listed in the table 3 and all of the test results listed in the table 4 were obtained by WST method.

[3] = test system: C-33A; test: Inhibition of tumor cells, WST method; assay type: cell-based; conditions: Homo sapiens, Uterine Neck
Procedure: as §1, §2

[4] = test system: DU145; test: Inhibition of tumor cells, WST method; assay type: cell-based; conditions: Homo sapiens, DU-145, Prostate
Procedure: as §1, §2

[5] = test system: MDA-MB-468; test: Inhibition of tumor cells, WST method; assay type: cell-based; conditions: Homo sapiens, Breast
Procedure: as §1, §2

[6] = test system: HCC827 (non-small cell lung cancer); test: Transplanted tumor in nude mice, HCC827 model; assay type: in vivo, nude mice (BALB/c)
Excerpt: Furthermore, more pharmacological models of tumor cell lines in nude mice were utilized to validate the inhibitory effects of compound Ie. The test method was specifically described as follows: H1975, A549, HCC827, A431, N87, MDA-MD-468 and CAL27 tumor cells respectively were inoculated into nude mice (BALB/c, male, 5-6 weeks of age), and when the mean tumor volume reaches 150 mm^3 mice was randomized into groups. The H1975 tumor model in nude mice includes one positive control group and three dosage groups of compound Ie (6.7 mg/kg/day, 13.4 mg/kg/day, and 20.1 mg/kg/day. The A549 tumor model in nude mice includes one positive control group, two dosage groups of compound Ie (10 mg/kg/day, 20 mg/kg/day), and one dosage group of Docetaxel (12 mg/kg/day). The HCC827 tumor model in nude mice includes one positive control group, two dosage groups of compound Ie (0.5 mg/kg/day, 2.5 mg/kg/day), and one dosage group of Erlotinib (12.5 mg/kg/day). The A431 tumor model in nude mice includes one positive control group, two dosage groups of compound Ie (2.5 mg/kg/day, 5 mg/kg/day), and one dosage group of Erlotinib (50 mg/kg/day). […] The tumor size and body weight of nude mice were recorded twice weekly from the first day of administration. The tumor volume was calculated using formula (1×w^2), wherein 1 and w respectively represents the maximum and minimum size in each measurement. […]

Chain of EGFR (P00533 25-1210): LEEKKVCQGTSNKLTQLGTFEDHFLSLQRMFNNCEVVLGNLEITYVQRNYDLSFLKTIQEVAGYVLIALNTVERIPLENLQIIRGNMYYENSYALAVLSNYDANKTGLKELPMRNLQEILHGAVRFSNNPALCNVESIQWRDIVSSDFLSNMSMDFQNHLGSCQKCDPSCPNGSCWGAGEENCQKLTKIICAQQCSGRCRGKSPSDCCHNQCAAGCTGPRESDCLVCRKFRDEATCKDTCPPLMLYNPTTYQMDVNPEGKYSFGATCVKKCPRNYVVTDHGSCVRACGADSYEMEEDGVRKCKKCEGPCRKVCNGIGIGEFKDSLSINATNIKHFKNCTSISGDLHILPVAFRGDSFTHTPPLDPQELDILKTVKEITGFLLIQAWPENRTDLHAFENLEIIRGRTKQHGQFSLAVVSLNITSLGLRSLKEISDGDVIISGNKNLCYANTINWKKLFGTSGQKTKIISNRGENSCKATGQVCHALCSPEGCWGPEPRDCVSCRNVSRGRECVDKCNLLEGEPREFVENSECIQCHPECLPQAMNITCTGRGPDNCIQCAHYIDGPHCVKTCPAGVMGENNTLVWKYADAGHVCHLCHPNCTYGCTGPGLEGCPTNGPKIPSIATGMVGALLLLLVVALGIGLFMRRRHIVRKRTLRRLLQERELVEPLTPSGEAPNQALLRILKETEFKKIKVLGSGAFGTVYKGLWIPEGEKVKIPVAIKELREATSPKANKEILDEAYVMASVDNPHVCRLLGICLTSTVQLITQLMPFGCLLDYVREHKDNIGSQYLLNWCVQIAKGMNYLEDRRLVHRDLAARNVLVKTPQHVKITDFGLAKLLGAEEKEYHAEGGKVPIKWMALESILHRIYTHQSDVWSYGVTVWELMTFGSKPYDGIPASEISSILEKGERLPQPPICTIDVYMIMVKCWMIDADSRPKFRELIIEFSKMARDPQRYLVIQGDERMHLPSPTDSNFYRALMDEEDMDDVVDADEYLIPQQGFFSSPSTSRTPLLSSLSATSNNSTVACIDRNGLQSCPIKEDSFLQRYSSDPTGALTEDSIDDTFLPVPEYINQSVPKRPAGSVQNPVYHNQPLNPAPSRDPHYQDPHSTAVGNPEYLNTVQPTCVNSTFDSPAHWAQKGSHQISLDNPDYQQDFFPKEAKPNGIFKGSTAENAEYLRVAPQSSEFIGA

With `CN(C)C/C=C/C(=O)Nc1cc2c(Nc3ccc(F)c(Cl)c3)ncnc2cc1OC(F)F` [Compound Ie] the IC50 [1] was 0.4 nM, the “inhibitory effect on EGFR kinases relative to Afatinib, Neratinib and Gefitinib” value [1] was “over two times” and the IC50 [2] was 0.204 µM. The IC50 [3] was 0.057 µM, the IC50 [4] was 0.853 µM and the IC50 [5] was 0.076 µM. The “inhibitory and therapeutic effects on HCC827 tumor model” value ([6]; 0.5, 2.5 mg/kg/day orally for 21 days) was “strong inhibitory effects and therapeutic effects” and the “inhibitory effects on tumor cell growth compared with other drugs, HCC827 model” value ([6]; versus Erlotinib (12.5 mg/kg/day)) was “stronger inhibitory effects”.
